# Like-named read-outs stand apart in the source and are kept apart here.
# Experiments:
# [1] = system: Bacillus subtilis ATCC6633; assay: MIC, serial dilution method in Müller-Hinton agar; type: cell-based; settings: 37°C, 18 hours
# Method: (§1) The antibacterial activities of the cephalosporin compounds of the formula (I) according to this invention, specifically the final product compounds of the Examples 1 to 6 given hereinafter, were assayed in term of their minimum inhibitory concentrations (MIC; mcg/ml) against various test bacteria, as determined according to a standard serial dilution method in Müller-Hinton agar medium (a product of Difico company), where the incubation was made at 37°C for 18 hours. For the comparison purpose, the antibacterial spectrum of a known compound, Cefalexin (abbreviated as CEX) was also assayed in the same way as above.
# [2] = system: Escherichia coli K-12 C600; assay: MIC, serial dilution method in Müller-Hinton agar; type: cell-based
# Method: as §1
# [3] = system: Escherichia coli NIHJ-JS-2; assay: MIC, serial dilution method in Müller-Hinton agar; type: cell-based
# Method: as §1
# [4] = system: Klebsiella oxytosa GN10560; assay: MIC, serial dilution method in Müller-Hinton agar; type: cell-based; settings: Klebsiella oxytosa GN10560, cefuroximase producing strain, 37°C, 18 hours
# Method: as §1
# [5] = system: Klebsiella pneumoniae PCI602; assay: MIC, serial dilution method in Müller-Hinton agar; type: cell-based
# Method: as §1
# [6] = system: Micrococcus luteus ATCC9341; assay: MIC, serial dilution method in Müller-Hinton agar; type: cell-based; settings: 37°C, 18 hours
# Method: as §1
# Proteus morganii IFO3848 = assay: MIC, serial dilution method in Müller-Hinton agar; type: cell-based; settings: Morganella morganii
# Method: as §1
# Proteus rettgeri IFO3850 = assay: MIC, serial dilution method in Müller-Hinton agar; type: cell-based; settings: Providencia rettgeri
# Method: as §1
# Proteus vulgaris OX-19 = assay: MIC, serial dilution method in Müller-Hinton agar; type: cell-based; settings: OX19, 37°C, 18 hours
# Method: as §1
# [7] = system: Pseudomonas aeruginosa IFO3445; assay: MIC, serial dilution method in Müller-Hinton agar; type: cell-based; settings: 37°C, 18 hours
# Method: as §1
# [8] = system: Rms139/MI Pseudomonas aeruginosa; assay: MIC, serial dilution method in Müller-Hinton agar; type: cell-based; settings: 18 h
# Method: as §1
# [9] = system: Rms212/Escherichia coli K-12 W3630; assay: MIC, serial dilution method in Müller-Hinton agar; type: cell-based; settings: 18 h
# Method: as §1
# [10] = system: Rms213/Escherichia coli K-12 W3630; assay: MIC, serial dilution method in Müller-Hinton agar; type: cell-based; settings: 18 h
# Method: as §1
# [11] = system: Rms823/Escherichia coli K-12 W3630; assay: MIC, serial dilution method in Müller-Hinton agar; type: cell-based; settings: 18 h
# Method: as §1
# [12] = system: Rte16/Escherichia coli K-12 W3630; assay: MIC, serial dilution method in Müller-Hinton agar; type: cell-based; settings: 18 h
# Method: as §1
# [13] = system: Salmonella enteritidis G14; assay: MIC, serial dilution method in Müller-Hinton agar; type: cell-based; settings: Salmonella enterica
# Method: as §1
# [14] = system: Salmonella paratyphi 1015; assay: MIC, serial dilution method in Müller-Hinton agar; type: cell-based; settings: Salmonella enterica, 37°C, 18 hours
# Method: as §1
# [15] = system: Salmonella schottmulleri 8006; assay: MIC, serial dilution method in Müller-Hinton agar; type: cell-based; settings: 37°C, 18 hours
# Method: as §1
# Salmonella typhi 901 = assay: MIC, serial dilution method in Müller-Hinton agar; type: cell-based; settings: Salmonella enterica, 18 h
# Method: as §1
# [16] = system: Salmonella typhimurium IID971; assay: MIC, serial dilution method in Müller-Hinton agar; type: cell-based; settings: Salmonella enterica
# Method: as §1
# [17] = system: Staphylococcus aureus FDA209P JC-1; assay: MIC, serial dilution method in Müller-Hinton agar; type: cell-based
# Method: as §1
# [18] = system: Staphylococcus aureus MS353; assay: MIC, serial dilution method in Müller-Hinton agar; type: cell-based
# Method: as §1
# [19] = system: Staphylococcus aureus Terajima; assay: MIC, serial dilution method in Müller-Hinton agar; type: cell-based; settings: 37°C, 18 hours
# Method: as §1
# [20] = Test 1: urinary recovery after oral administration; type: in vivo; settings: mice (ICR-strain, female), 300 mcg per mouse, urine collected until 5 hours after administration, microbial assay, molar percentage
# Method: To mice (ICR-strain, female, 4 weeks-aged) was orally administered a new cephalosporin compound according to this invention at a dosage of 300 mcg per mouse. Until the end of 5 hours after oral administration of the test cephalosporin compound, all the volumes of urine discharged by the treated mice were collected together, and the total amount of the test compound remaining in the collected urine was measured by a microbial assay method. The urinary recovery of the test compound was calculated in terms of percentage of the molar quantity of the test compound as recovered, against the molar quantity of the test compound as orally given.
# [21] = K12C600, Escherichia coli K-12 C600, Müller-Hinton agar, 37°C, 18 hours, read-out: MIC
# [22] = NIHJJS2, Escherichia coli NIHJ-JS-2, Müller-Hinton agar, 37°C, 18 hours, read-out: MIC
# [23] = Klebsiella pneumoniae PCI602, Müller-Hinton agar, 37°C, 18 hours, read-out: MIC
# [24] = Proteus morganii IFO3848, Müller-Hinton agar, 37°C, 18 hours, read-out: MIC
# [25] = Proteus rettgeri IFO3850, Müller-Hinton agar, 37°C, 18 hours, read-out: MIC
# [26] = Salmonella enteritidis G14, Müller-Hinton agar, 37°C, 18 hours, read-out: MIC
# [27] = Staphylococcus aureus, FDA209P, 18 h
# [28] = Staphylococcus aureus MS353, Müller-Hinton agar, 37°C, 18 hours, read-out: MIC
# [29] = Escherichia coli, K12C600, 18 h
# [30] = Escherichia coli, NIHJJS2, 18 h
# [31] = Klebsiella pneumoniae, PCI602, 18 h
# [32] = Staphylococcus aureus FDA209P JC-1, Müller-Hinton agar, 37°C, 18 hours, read-out: MIC
# [33] = Staphylococcus aureus, MS353, 18 h
Compound,MIC [1] [µg/mL],"MIC [2, 21] [µg/mL]",MIC [4] [µg/mL],MIC [6] [µg/mL],MIC (Proteus morganii IFO3848; [24]) [µg/mL],MIC (Proteus vulgaris OX-19) [µg/mL],MIC [7] [µg/mL],MIC [8] [µg/mL],MIC [9] [µg/mL],MIC [10] [µg/mL],MIC [11] [µg/mL],MIC [12] [µg/mL],"MIC [13, 26] [µg/mL]",MIC [14] [µg/mL],MIC [15] [µg/mL],MIC (Salmonella typhi 901) [µg/mL],MIC [19] [µg/mL],dose excreted [20] [%],"MIC [5, 31] [µg/mL]",MIC ([16]; 18 h) [µg/mL],also measured
"C/C=C\C1=C(C(=O)O)N2C(=O)C(NC(=O)[C@H](N)c3ccc(CO)c(OC)c3)[C@H]2SC1 (stereo partly drawn) [Example 5 Compound, 7-{(R)-2-amino-2-(4-hydroxymethyl-3-methoxyphenyl)acetamido}-3-{(Z)-1-propenyl}-3-cephem-4-carboxylic acid]",0.05,3.13,> 100,0.025,3.13,50,> 100,100,12.5,25,> 100,3.13,0.78,0.78,0.39,1.56,0.1,47.9,,,"MIC [3, 22]: 6.25 µg/mL; MIC [5, 23]: 0.78 µg/mL; MIC (Proteus rettgeri IFO3850; [25]): 3.13 µg/mL; MIC ([16]; Salmonella typhimurium IID971, Müller-Hinton agar, 37°C, 18 hours, read-out: MIC): 3.13 µg/mL; MIC [17, 27]: 1.56 µg/mL; MIC [18, 28]: 0.78 µg/mL"
"COCC1=C(C(=O)O)N2C(=O)C(NC(=O)[C@H](N)c3ccc(CO)c(O)c3)[C@H]2SC1 (stereo partly drawn) [Example 2 Compound, 7-{(R)-2-amino-2-(3-hydroxy-4-hydroxymethylphenyl)acetamido}-3-methoxymethyl-3-cephem-4-carboxylic acid]",0.2,,> 100,0.1,50,100,> 100,> 100,50,12.5,> 100,25,,12.5,6.25,6.25,0.2,48.3,6.25,6.25,"MIC [2, 29]: 12.5 µg/mL; MIC [3, 30]: 12.5 µg/mL; MIC (Proteus rettgeri IFO3850; [25]): 25 µg/mL; MIC ([13]; ENTERITIDIS, 18 h): 6.25 µg/mL; MIC [17, 32]: 1.56 µg/mL; MIC [18, 28]: 1.56 µg/mL"
"CC1=C(C(=O)O)N2C(=O)[C@@H](NC(=O)[C@H](N)c3ccccc3)[C@H]2SC1 [CEX, Cefalexin, reference compound]",0.78,,> 100,0.1,25,12.5,> 100,> 100,12.5,12.5,12.5,12.5,> 100,6.25,6.25,3.13,0.2,,3.13,6.25,"MIC [2, 29]: 6.25 µg/mL; MIC [3, 30]: 6.25 µg/mL; MIC (Proteus rettgeri IFO3850; [25]): 12.5 µg/mL; MIC [17, 27]: 3.13 µg/mL; MIC [18, 33]: 3.13 µg/mL"
"C=CC1=C(C(=O)O)N2C(=O)C(NC(=O)[C@H](N)c3ccc(CO)c(O)c3)[C@H]2SC1 (stereo partly drawn) [Example 3 Compound, 7-{(R)-2-amino-2-(3-hydroxy-4-hydroxymethylphenyl)acetamido}-3-vinyl-3-cephem-4-carboxylic acid]",0.05,6.25,> 100,0.2,50,25,> 100,> 100,12.5,12.5,> 100,12.5,,3.13,3.13,3.13,0.2,65,3.13,3.13,"MIC [3, 22]: 6.25 µg/mL; MIC (Proteus rettgeri IFO3850; [25]): 50 µg/mL; MIC ([13]; ENTERITIDIS, 18 h): 3.13 µg/mL; MIC [17, 32]: 1.56 µg/mL; MIC [18, 28]: 1.56 µg/mL"
"C/C=C\C1=C(C(=O)O)N2C(=O)C(NC(=O)[C@H](N)c3ccc(CO)c(O)c3)[C@H]2SC1 (stereo partly drawn) [Example 4 Compound, 7-{(R)-2-amino-2-(3-hydroxy-4-hydroxymethylphenyl)acetamido)-3-{(Z)-1-propenyl)-3-cephem-4-carboxylic acid]",0.2,3.13,> 100,0.1,,25,> 100,> 100,12.5,6.25,100,12.5,0.78,1.56,1.56,0.78,0.1,58.8,,1.56,"MIC [3, 22]: 6.25 µg/mL; MIC [5, 23]: 0.78 µg/mL; MIC (Proteus morganii IFO3848; IFO3848, 18 h): 1.56 µg/mL; MIC (Proteus rettgeri IFO3850; IFO3850, 18 h): 1.56 µg/mL; MIC [17, 27]: 1.56 µg/mL; MIC [18, 33]: 1.56 µg/mL"
"C/C=C\C1=C(C(=O)O)N2C(=O)C(NC(=O)[C@H](N)c3ccc(COC)c(OC)c3)[C@H]2SC1 (stereo partly drawn) [Example 6 Compound, 7-{(R)-2-amino-2-(3-methoxy-4-methoxymethylphenyl)acetamido}-3-{(Z)-1-propenyl}-3-cephem-4-carboxylic acid]",0.05,6.25,> 100,0.025,,100,> 100,> 100,100,12.5,> 100,25,6.25,3.13,1.56,12.5,0.1,32.9,1.56,12.5,"MIC [3, 22]: 25 µg/mL; MIC (Proteus morganii IFO3848; IFO3848, 18 h): 1.56 µg/mL; MIC (Proteus rettgeri IFO3850; IFO3850, 18 h): 12.5 µg/mL; MIC [17, 32]: 0.78 µg/mL; MIC [18, 33]: 1.56 µg/mL"
"CC1=C(C(=O)O)N2C(=O)C(NC(=O)[C@H](N)c3ccc(CO)c(O)c3)[C@H]2SC1 (stereo partly drawn) [Example 1 Compound, 7-{(R)-2-amino-2-(3-hydroxy-4-hydroxymethylphenyl)acetamido}-3-methyl-3-cephem-4-carboxylic acid]",0.78,,100,0.1,> 100,100,> 100,> 100,12.5,12.5,100,12.5,50,12.5,12.5,6.25,0.2,65.1,6.25,6.25,"MIC [2, 29]: 12.5 µg/mL; MIC [3, 30]: 12.5 µg/mL; MIC (Proteus rettgeri IFO3850; IFO3850, 18 h): 12.5 µg/mL; MIC [17, 32]: 3.13 µg/mL; MIC [18, 28]: 3.13 µg/mL"

# — patent EP0321364A2, “Orally administrable cephalosporin derivatives, and the production and uses thereof” (ZAIDAN HOJIN BISEIBUTSU KAGAKU KENKYU KAI, priority 1987, dated 1989)
